Assays:
[1] = target: T1, Nuclear receptor subfamily 1 group I member 3 (Homo sapiens, UniProt Q14994); assay: Activation of human CAR expressed in rat hepatocytes coexpressing CYP2B1 at 1 uM after 24 hrs by dual luciferase reporter gene assay; assay type: ADME, cell-based, Hepatocyte
T1 sequence (Q14994 whole entry): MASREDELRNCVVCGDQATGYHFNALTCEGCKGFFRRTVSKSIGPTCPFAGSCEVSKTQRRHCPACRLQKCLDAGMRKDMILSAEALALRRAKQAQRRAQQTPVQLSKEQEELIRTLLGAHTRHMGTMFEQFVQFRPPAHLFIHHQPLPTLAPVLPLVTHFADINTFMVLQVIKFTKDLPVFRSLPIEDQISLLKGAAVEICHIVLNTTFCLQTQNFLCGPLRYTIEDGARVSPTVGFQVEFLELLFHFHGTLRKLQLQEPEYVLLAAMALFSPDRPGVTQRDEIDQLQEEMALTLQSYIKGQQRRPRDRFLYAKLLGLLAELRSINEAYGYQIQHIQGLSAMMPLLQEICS

[2] = target: T1, Nuclear receptor subfamily 1 group I member 3; assay: Activation of human CAR expressed in human HepG2 cells coexpressing CYP2B6 at 0.25 uM after 24 hrs by dual luciferase reporter gene assay; assay type: ADME, cell-based; conditions: hepg2, 24 h
[3] = target: T2, Nuclear receptor subfamily 1 group I member 2 (Homo sapiens, UniProt O75469); assay: Activation of human PXR expressed in rat hepatocytes coexpressing CYP3A4 at 10 uM after 24 hrs by dual luciferase reporter gene assay relative to control
T2 sequence (O75469 whole entry): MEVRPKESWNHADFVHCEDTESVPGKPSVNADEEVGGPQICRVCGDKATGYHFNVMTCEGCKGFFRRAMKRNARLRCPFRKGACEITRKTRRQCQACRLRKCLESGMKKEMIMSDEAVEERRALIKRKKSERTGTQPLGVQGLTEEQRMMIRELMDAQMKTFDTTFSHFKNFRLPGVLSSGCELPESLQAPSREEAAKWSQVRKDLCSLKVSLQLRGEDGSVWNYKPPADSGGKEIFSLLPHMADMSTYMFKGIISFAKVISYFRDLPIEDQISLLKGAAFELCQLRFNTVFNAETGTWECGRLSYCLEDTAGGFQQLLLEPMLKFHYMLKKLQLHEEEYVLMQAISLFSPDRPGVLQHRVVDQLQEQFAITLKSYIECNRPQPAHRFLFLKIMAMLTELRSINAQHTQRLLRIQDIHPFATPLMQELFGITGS

[4] = target: T2, Nuclear receptor subfamily 1 group I member 2; assay: Activation of human PXR expressed in human HepG2 cells coexpressing CYP3A4 at 10 uM after 24 hrs by dual luciferase reporter gene assay relative to control; conditions: hepg2, 24 h
PXR (CYP3A4 reporter) [5] = target: T3, PXR (CYP3A4 reporter) (Rattus norvegicus, UniProt Q9R1A7); assay: Activation of rat PXR expressed in human HepG2 cells coexpressing CYP3A4 at 0.1 to 10 uM after 24 hrs by dual luciferase reporter gene assay relative to control; conditions: human HepG2 cells expressing rat PXR and coexpressing CYP3A4
T3 sequence (Q9R1A7 whole entry): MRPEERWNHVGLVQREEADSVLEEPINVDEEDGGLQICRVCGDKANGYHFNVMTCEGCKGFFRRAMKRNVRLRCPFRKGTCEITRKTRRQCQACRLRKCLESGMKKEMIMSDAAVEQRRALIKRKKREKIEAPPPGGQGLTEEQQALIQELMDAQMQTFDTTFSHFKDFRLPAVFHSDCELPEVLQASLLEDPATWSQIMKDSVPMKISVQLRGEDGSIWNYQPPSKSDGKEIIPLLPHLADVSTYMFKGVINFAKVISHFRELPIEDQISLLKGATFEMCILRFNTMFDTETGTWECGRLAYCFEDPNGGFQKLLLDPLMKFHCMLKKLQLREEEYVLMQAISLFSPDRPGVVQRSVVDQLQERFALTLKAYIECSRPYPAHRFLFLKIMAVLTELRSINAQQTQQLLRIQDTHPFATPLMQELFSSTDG

PXR (CYP3A4 reporter) [6] = target: T3, PXR (CYP3A4 reporter); assay: Activation of rat PXR expressed in rat hepatocytes coexpressing CYP3A4 at 10 uM after 24 hrs by dual luciferase reporter gene assay relative to control; conditions: rat hepatocytes expressing rat PXR and coexpressing CYP3A4
[7] = target: T1, Nuclear receptor subfamily 1 group I member 3; assay: Activation of human CAR expressed in human HepG2 cells coexpressing CYP2B6 at 10 uM after 24 hrs by dual luciferase reporter gene assay; assay type: ADME, cell-based; conditions: hepg2, 24 h
[8] = target: T4, Nuclear receptor subfamily 1 group I member 3 (Rattus norvegicus, UniProt Q9QUS1); assay: Activation of rat CAR expressed in rat hepatocytes coexpressing CYP2B1 at 1 uM after 24 hrs by dual luciferase reporter gene assay; assay type: ADME, cell-based, Hepatocyte
T4 sequence (Q9QUS1 whole entry): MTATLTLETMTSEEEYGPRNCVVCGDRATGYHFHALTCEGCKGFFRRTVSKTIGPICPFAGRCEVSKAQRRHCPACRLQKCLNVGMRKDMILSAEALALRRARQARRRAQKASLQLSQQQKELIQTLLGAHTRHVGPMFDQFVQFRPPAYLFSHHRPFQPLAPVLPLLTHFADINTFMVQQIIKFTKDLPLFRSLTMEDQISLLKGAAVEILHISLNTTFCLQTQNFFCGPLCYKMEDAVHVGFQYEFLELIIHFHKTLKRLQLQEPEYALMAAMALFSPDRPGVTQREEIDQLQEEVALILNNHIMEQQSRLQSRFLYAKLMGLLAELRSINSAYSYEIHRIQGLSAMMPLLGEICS

CAR (CYP2B1 reporter) = target: T5, CAR (CYP2B1 reporter) (Rattus norvegicus, UniProt Q9QUS1); assay: Activation of rat CAR expressed in rat hepatocytes coexpressing CYP2B1 at 100 uM after 24 hrs by dual luciferase reporter gene assay relative to control; assay type: ADME, cell-based, Hepatocyte; conditions: rat hepatocytes expressing rat CAR and coexpressing CYP2B1, read-out: FC
T5 sequence (Q9QUS1 whole entry): T4 sequence (Q9QUS1 whole entry)

[9] = target: T6, CYP2B activity (CAR activation) (Rattus norvegicus, UniProt Q9QUS1); assay: Activation of CAR in rat hepatocytes assessed as increase in CYP2B-mediated benzyloxyresorufin O-dealkylation at 100 uM after 24 hrs by spectrofluorometric analysis relative to control; assay type: ADME, cell-based, Hepatocyte; conditions: probe benzyloxyresorufin (O-dealkylation), read-out: FC
T6 sequence (Q9QUS1 whole entry): T4 sequence (Q9QUS1 whole entry)

[10] = target: T7, CYP2B1 mRNA (CAR activation) (Rattus norvegicus, UniProt Q9QUS1); assay: Activation of CAR in rat hepatocytes assessed as upregulation of CYP2B1 mRNA expression at 100 uM after 24 hrs by RT-PCR analysis relative to control; assay type: ADME, cell-based, Hepatocyte; conditions: read-out: FC
T7 sequence (Q9QUS1 whole entry): T4 sequence (Q9QUS1 whole entry)

[11] = target: T2, Nuclear receptor subfamily 1 group I member 2; assay: Antagonist activity at human PXR expressed in human HepG2 cells coexpressing CYP3A4 assessed as inhibition of rifampicin-induced receptor activation at 30 uM after 24 hrs by dual luciferase reporter gene assay; assay type: ADME, cell-based; conditions: hepg2, 24 h
[12] = target: T8, Nuclear receptor subfamily 1 group I member 2 (Rattus norvegicus, UniProt Q9R1A7); assay: Antagonist activity at rat PXR expressed in human HepG2 cells coexpressing CYP3A4 assessed as inhibition of PCN-induced receptor activation at 30 uM after 24 hrs by dual luciferase reporter gene assay; assay type: ADME, cell-based; conditions: hepg2, 24 h
T8 sequence (Q9R1A7 whole entry): T3 sequence (Q9R1A7 whole entry)

Clc1cnc(Oc2ccc(Oc3ncc(Cl)cc3Cl)cc2)c(Cl)c1
Activity [1]: Not Active
Activity [2]: Not Active

CC(=O)[C@H]1[C@H](C#N)C[C@H]2[C@@H]3CC=C4C[C@@H](O)CC[C@]4(C)[C@H]3CC[C@@]21C [PREGNENOLONE CARBONITRILE]
Activity [3]: Not Active
Activity [4]: Not Active
fold induction at 24 h, 10 µM (PXR (CYP3A4 reporter) [5]): 19
fold induction at 24 h, 10 µM (PXR (CYP3A4 reporter) [6]): 9

Clc1ccc(-c2nc3sccn3c2/C=N/OCc2ccc(Cl)c(Cl)c2)cc1
Activity [7]: Active
Activity [8]: Not Active

CCC1(c2ccccc2)C(=O)NC(=O)NC1=O [PHENOBARBITAL SODIUM]
fold induction at 24 h, 100 µM (CAR (CYP2B1 reporter)): 9
fold induction at 24 h, 100 µM [9]: 12
fold induction at 24 h, 100 µM [10]: 48

CC(=O)N1CCN(c2ccc(OCC3COC(Cn4ccnc4)(c4ccc(Cl)cc4Cl)O3)cc2)CC1 (stereo not drawn) [KETOCONAZOLE]
inhibition (INH) [11]: Active
inhibition (INH) [12]: Active

Reference: ChEMBL document CHEMBL3526076, “Species-dependent and receptor-selective action of bilobalide on the function of constitutive androstane receptor and pregnane X receptor” (Drug Metab Dispos, 2012)
